Data: patent US20260184759A1, “CHIMERIC ANTIGEN RECEPTORS SPECIFIC FOR CONJUGATED BIOTIN” (Seattle Children's Hospital (dba Seattle Children's …, priority 2022, published 2026)

What was measured:
[1] = tested on: anti-conjugated biotin CARs; assay: Competition assay against biotin-PEG-Cy5 binding (flow cytometry); design: species or system human; conditions: 440 nM biotin-PEG-Cy5 with 0.2, 1, 5 or 20 nM competitor, 30 minutes, room temperature
Method: First, cells expressing various CARs were incubated with 440 nM of biotin-PEG-Cy5 (FIG. 6) for 30 minutes at room temperature. Concurrently, they were exposed to 0 nM (no competition), 0.2 nM, 1 nM, 5 nM, or 20 nM of either unconjugated biotin or a non-fluorescent conjugated biotin (FIG. 7A).
One differentiating factor for this CAR when compared with other biotin-binding receptors previously described^28,29,31 is that the CAR may bind any biotin derivative but not the unmodified molecule itself (FIG. 2B). To confirm this selective binding to biotin conjugates, the panel of CAR T cells was incubated with 440 nM of a biotin-PEG-Cy5 conjugate, and titrated doses (20 nM, 5 nM, 1 nM, and 0.2 nM) of competition were incubated concurrently with the soluble antigen. Competition included another conjugated biotin, biotin-PEG2k-folate (FIG. 7A), and unmodified biotin (FIG. 7B).
To confirm anti-biotin CAR T cell binding to conjugated biotin, 440 nM of a 1.1 kDa biotin-PEG-Cy5 (Click Chemistry Tools) conjugate was incubated with the cells for 30 min at room temperature. For the competition assay, 0.2 nM, 1 nM, 5 nM, or 20 nM of either 2 kDa biotin-folate (NanoCS) or unconjugated biotin (Sigma-Adrich) were incubated concurrently with the cells and biotin-PEG-Cy5. Cells were washed and fixed in a 0.5% paraformaldehyde solution. […]

[2] = tested on: anti-conjugated biotin CAR T cells; assay: ICCS assay with unconjugated biotin added to the co-incubation; format: cell-based, human; conditions: 0 ng, 100 ng, 500 ng, 2 ug unconjugated biotin during 4-hour co-incubation with labelled targets
Method: Additionally, unconjugated biotin was added to co-incubating cells for the entire 4-hour co-incubation to determine whether unconjugated biotin can block anti-conjugated biotin binding to target cells. Unconjugated biotin was added at 4 different doses: 0 ng (no competition), 100 ng, 500 ng, and 2 ug. […] The cells were then assessed for production of the intracellular cytokines IFN, IL2, and TNF.
Cytokine expression and activation/exhaustion markers of anti-biotin CAR T cells stimulated with targets cells were examined by ICCS. Target cells were labeled with appropriate intermediate adaptors and washed. T cells were then co-incubated with labeled and unlabeled target cells at an E:T ratio of 1:1 for 4 hours in the presence of Protein Transport Inhibitor (ThermoFisher Scientific) to block cytokine secretion. Cells were incubated in the appropriate medium for each target line. 100× Cell Stimulation Cocktail (ThermoFisher Scientific) was used as a positive control. An anti-CD107a BV711 antibody (BioLegend) was also included with the cells during the incubation. Cells were then labeled for dead cells using FVS520 live/dead stain (BD Horizon), washed, and subsequently FcR Blocked (Miltenyi Biotec). Surface markers were then stained using anti-CD4 PacBlue(BioLegend), anti-CD8 PerCP/Cy5.5 (Biolegend), and erbitux-APC (BD Biosciences). […]

`O=C(O)CCCC[C@@H]1SC[C@@H]2NC(=O)N[C@@H]21` [unconjugated biotin, biotin] was tested, and the “MFI of biotin-PEG-Cy5 binding under competition” value [1] was “not negatively impacted in their ability to bind biotin conjugated to fluorescent Cy5”, the “MFI of biotin-PEG-Cy5 binding under competition” value ([1]; listed as unmodified biotin) was “no decrease in MFI” and the “impact of unconjugated biotin on activation markers (CD8+ CAR T cells)” value [2] was “no impact on the activation profiles of the CAR T cells”. The “impact of unconjugated biotin on intracellular cytokines (CD4+ CAR T cells)” value [2] was “no impact on the activation profiles of the CAR T cells”.
